Assays:
[1] = tested on: Escherichia coli (ATCC 10536); test: Agar diffusion method (inhibition zone); type: cell-based; design: key to Inhibition zone after 4 days of incubation (symbol): — (*): After 4 days of incubation, the bacteria grown up in the inhibition zone initially formed; conditions: E. coli; for Average diameters of inhibition zones, after 24 hours of incubation: 100 μl in 6 mm well, 37° C.; for Inhibition zone after 4 days of incubation (symbol): free oils
Experimental: (§1) This assay was conducted with the limonene and vanillin microcapsules suspensions after applying the washing procedure described previously. Moreover, the free active agents were also tested separately (not incorporated in microcapsules). Staphylococcus aureus (ATCC 19213) and Escherichia coli (ATCC 10536) were used as representatives for Gram positive and Gram negative bacteria, respectively. The bacterial inoculums were prepared, under aseptic conditions, by transferring 4 isolated colonies of each type to individual test tubes containing nutrient broth and then incubated at 37° C. for 24 hours. The inoculums were then diluted by sterilized Ringer solution to a concentration of 0.5 McFarland turbidity (concentration of 1.5-3.0×10^8 CFU/ml). The concentration of the bacteria dilutions, also ascertained through UV spectrophotometry at 625 nm, was 0.0938 for the S. aureus, and 0.0940 for the E. coli. The bacterial solutions were then inoculated on the surface of Mueller Hinton Agar plates, using sterilized cotton swabs, and thereafter allowed to dry. Then, a well of 6 mm diameter was made in the center of each inoculated plate; the plug was removed, and filled with 100 μl of the microcapsules suspension. The limonene oil was diluted in dimethyl sulfoxide (DMSO) (7:3 ratio), and the vanillin dissolved in corn oil (0.03 g vanillin in 1 g of oil). The plates were incubated at 37° C. for 24 h. After this time period, the diameter of the inhibition zone was measured and incubation maintained for more 4 days in order to evaluate further changes in the inhibition zone. The clear zone formed, after incubation, around each hole (inhibition halo), indicates antimicrobial activity and its diameter is a measure of the inhibitory effect. All of the tests were done in duplicates.

[2] = tested on: Staphylococcus aureus (ATCC 19213); test: Agar diffusion method (inhibition zone); type: cell-based; design: key to Inhibition zone after 4 days of incubation (symbol): — (*): After 4 days of incubation, the bacteria grown up in the inhibition zone initially formed; conditions: S. aureus; for Average diameters of inhibition zones, after 24 hours of incubation: 100 μl in 6 mm well, 37° C.; for Inhibition zone after 4 days of incubation (symbol): free oils
Experimental: as §1

| Structure (SMILES) | Average diameters of inhibition zones, after 24 hours of incubation [1] | Inhibition zone after 4 days of incubation (symbol) [1] | Average diameters of inhibition zones, after 24 hours of incubation [2] | Inhibition zone after 4 days of incubation (symbol) [2] |
| --- | --- | --- | --- | --- |
| COc1cc(C=O)ccc1O [Vanillin in corn oil, Vanillin] | 0.95 ± 0.32 cm | — (*) | 1.00 ± 0.20 cm | — (*) |
| C=C(C)[C@H]1CC=C(C)CC1 [Limonene in DMSO, Limonene] | 3.30 ± 0.31 cm | — (*) | 3.30 ± 0.18 cm | — (*) |

Reference: patent publication US20200315168A1, “Aroma-Loaded Microcapsules with Antibacterial Activity for Eco-friendly Applications” (The American University in Cairo, priority 2017, published 2020)
